This note sets out measurements from US9730937B2, “RAF kinase modulator compounds and methods of use thereof” (AMBIT BIOSCIENCES CORPORATION, priority 2008, dated 2017).

The first assay deals with panel of 290 distinct kinases (321 in the larger panel), excluding mutant variants. The conditions noted are these: asterisk: panel of 321 distinct kinases.
In the case of `COc1cc2ncnc(Sc3cccc(NC(=O)Nc4ccc(OC)c(C(F)(F)F)c4)c3)c2cc1OCCCN1CCS(=O)(=O)CC1` [Ex 246, 1-(4-methoxy-3-(trifluoromethyl)phenyl)-3-(3-(7-methoxy-6-(3-(4,4-dioxothiomorpholino)propoxy)quinazolin-4-ylthio)phenyl)urea], the S35 entry is recorded as “C* (0.20 < C ≦ 0.40)”.
With `COCCOc1cc2ncnc(Sc3cccc(NC(=O)Nc4cc(C(F)(F)F)nn4C)c3)c2cc1OC` [Ex 239, 1-{3-[6-methoxy-7-(2-methoxyethoxy)quinazolin-4-ylthio]phenyl}-3-[1-methyl-3-(trifluoromethyl)-1H-pyrazol-5-yl]urea], the S35 entry is “D* (D > 0.40)”.
Consider `COCCOc1cc2ncnc(Oc3cccc(NC(=O)Nc4cc(C(C)(C)COC)on4)c3)c2cc1OC` [Ex 217, 1-(5-(1-methoxy-2-methylpropan-2-yl)isoxazol-3-yl)-3-(3-(6-methoxy-7-(2-methoxyethoxy)quinazolin-4-yloxy)phenyl)urea], for which the S35 result is reported as “C* (0.20 < C ≦ 0.40)”.
For the compound `COCCOc1cc2ncnc(Oc3cccc(NC(=O)Nc4cc(C(C)(F)F)no4)c3)c2cc1OC` [Ex 211, 1-(3-(1,1-difluoroethyl)isoxazol-5-yl)-3-(3-(6-methoxy-7-(2-methoxyethoxy)quinazolin-4-yloxy)phenyl)urea], the S35 result is “C* (0.20 < C ≦ 0.40)”.
Same read-out and setting: the result for `COCCOc1cc2ncnc(Oc3cccc(NC(=O)Nc4cc(C(F)(F)F)n(C)n4)c3)c2cc1OC` [Ex 208, 1-{3-[6-methoxy-7-(2-methoxyethoxy)quinazolin-4-yloxy]phenyl}-3-[1-methyl-5-(trifluoromethyl)-1H-pyrazol-3-yl]urea] reads “C* (0.20 < C ≦ 0.40)”; that for `COCCOc1cc2ncnc(Oc3cccc(NC(=O)Nc4cc(C5CCOCC5)no4)c3)c2cc1OC` [Ex 216, 1-(3-(6-methoxy-7-(2-methoxyethoxy)quinazolin-4-yloxy)phenyl)-3-(3-(tetrahydro-2H-pyran-4-yl)isoxazol-5-yl)urea], “B* (0.10 < B ≦ 0.20)”; that for `COCCOc1cc2ncnc(Oc3cccc(NC(=O)Nc4cc(C(F)(F)F)nn4-c4ccc(C)cc4)c3)c2cc1OC` [Ex 227, 1-{3-[6-methoxy-7-(2-methoxyethoxy)quinazolin-4-yloxy]phenyl}-3-[1-p-tolyl-3-(trifluoromethyl)-1H-pyrazol-5-yl]urea], “C* (0.20 < C ≦ 0.40)”.
Regarding `COc1cc2c(Oc3cccc(NC(=O)Nc4ccc(OC)c(C(F)(F)F)c4)c3)ncnc2cc1OCCN1CCOCC1` [Ex 250, 1-(4-methoxy-3-(trifluoromethyl)phenyl)-3-(3-(6-methoxy-7-(2-morpholinoethoxy)quinazolin-4-yloxy)phenyl)urea], the S35 entry was “C* (0.20 < C ≦ 0.40)”.
The same measure, in the same setting: the result for `COCCOc1cc2ncnc(Oc3cccc(NC(=O)Nc4cc(C(F)(F)F)n(-c5ccccc5)n4)c3)c2cc1OC` [Ex 225, 1-{3-[6-methoxy-7-(2-methoxyethoxy)quinazolin-4-yloxy]phenyl}-3-[1-phenyl-5-(trifluoromethyl)-1H-pyrazol-3-yl]urea] reads “C* (0.20 < C ≦ 0.40)”.
As for `COCCOc1cc2ncnc(Oc3cccc(NC(=O)Nc4ccc(C(F)(F)F)c(OC)c4)c3)c2cc1OC` [Ex 223, 1-(3-methoxy-4-(trifluoromethyl)phenyl)-3-(3-(6-methoxy-7-(2-methoxyethoxy)quinazolin-4-yloxy)phenyl)urea], the S35 entry is recorded as “C* (0.20 < C ≦ 0.40)”.
Consider `COCCOc1cc2ncnc(Sc3cccc(NC(=O)Nc4cc(C(C)(CF)CF)nn4-c4ccccc4)c3)c2cc1OC` [Ex 238, 1-[3-(1,3-difluoro-2-methylpropan-2-yl)-1-phenyl-1H-pyrazol-5-yl]-3-{3-[6-methoxy-7-(2-methoxyethoxy)quinazolin-4-ylthio]phenyl}urea], for which the S35 result is given as “D* (D > 0.40)”.
Regarding `CCOC(=O)Cn1nc(C(C)(C)C)cc1NC(=O)Nc1cccc(Sc2ncnc3cc(OCCOC)c(OC)cc23)c1` [Ex 237, ethyl 2-[3-tert-butyl-5-(3-{3-[6-methoxy-7-(2-methoxyethoxy)quinazolin-4-ylthio]phenyl}ureido)-1H-pyrazol-1-yl]acetate], the S35 result is recorded as “C* (0.20 < C ≦ 0.40)”.
Same read-out and setting: for `COCCOc1cc2ncnc(Oc3cccc(NC(=O)Nc4cc(C(F)(F)F)nn4C)c3)c2cc1OC` [Ex 220, 1-{3-[6-methoxy-7-(2-methoxyethoxy)quinazolin-4-yloxy]phenyl}-3-[1-methyl-3-(trifluoromethyl)-1H-pyrazol-5-yl]urea] the value was “C* (0.20 < C ≦ 0.40)”; for `COCCOc1cc2ncnc(Oc3cccc(NC(=O)Nc4cc(C(C)(C)F)no4)c3)c2cc1OC` [Ex 218, 1-(3-(2-fluoropropan-2-yl)isoxazol-5-yl)-3-(3-(6-methoxy-7-(2-methoxyethoxy)quinazolin-4-yloxy)phenyl)urea], “C* (0.20 < C ≦ 0.40)”; for `COCCOc1cc2ncnc(Sc3cccc(NC(=O)Nc4cc(C5CCCC5)on4)c3)c2cc1OC` [Ex 235, 1-(5-cyclopentylisoxazol-3-yl)-3-(3-(6-methoxy-7-(2-methoxyethoxy)quinazolin-4-ylthio)phenyl)urea], “C* (0.20 < C ≦ 0.40)”.

Staying with this assay, now noted: kinase selectivity score, 290 distinct kinases; class symbols.
Regarding `COCCOc1cc(NC(=O)Nc2cccc(Oc3ncnc4cc(OCCOC)c(OC)cc34)c2)cc(C(F)(F)F)c1` [Ex 117, 1-(3-(6-methoxy-7-(2-methoxyethoxy)quinazolin-4-yloxy)phenyl)-3-(3-(2-methoxyethoxy)-5-(trifluoromethyl)phenyl)urea], the S35 entry is recorded as “C (0.20 < C ≦ 0.40)”.

The assay is the same for the next values; noted with them: no asterisk: panel of 290 distinct kinases.
As to `COc1cc2ncnc(Oc3ccc(Cl)c(NC(=O)Nc4cc(C(F)(F)F)nn4-c4ccccc4)c3)c2cc1OC` [Ex 300, 1-(2-chloro-5-(6,7-dimethoxyquinazolin-4-yloxy)phenyl)-3-(1-phenyl-3-(trifluoromethyl)-1H-pyrazol-5-yl)urea], the S35 result was “C (0.20 < C ≦ 0.40)”.
On the same count and under the same terms, the result for `COc1cc2ncnc(Oc3cc(NC(=O)Nc4cc(C(C)(C)F)no4)c(F)cc3F)c2cc1OC` [Ex 269, 1-(5-(6,7-dimethoxyquinazolin-4-yloxy)-2,4-difluorophenyl)-3-(3-(2-fluoropropan-2-yl)isoxazol-5-yl)urea] reads “D (D > 0.40)”.
For `COc1cc2ncnc(Sc3cccc(NC(=O)Nc4cccc(C(C)(C)C#N)c4)c3)c2cc1OC` [Ex 279, 1-(3-(2-cyanopropan-2-yl)phenyl)-3-(3-(6,7-dimethoxyquinazolin-4-ylthio)phenyl)urea], the S35 entry is “C (0.20 < C ≦ 0.40)”.
As for `COc1cc2ncnc(Oc3cccc(NC(=O)Nc4cc(C(C)(C)C)nn4-c4ccccc4C(F)(F)F)c3)c2cc1OC` [Ex 376, 1-(3-tert-butyl-1-(2-(trifluoromethyl)phenyl)-1H-pyrazol-5-yl)-3-(3-(6,7-dimethoxyquinazolin-4-yloxy)phenyl)urea], the S35 entry is on record as “D (D > 0.40)”.
`COc1cc2ncnc(Sc3cccc(NC(=O)Nc4cc(C(C)(C)C(F)(F)F)no4)c3)c2cc1OC` [Ex 268, 1-(3-(6,7-dimethoxyquinazolin-4-ylthio)phenyl)-3-(3-(1,1,1-trifluoro-2-methylpropan-2-yl)isoxazol-5-yl)urea]: the S35 entry is “C (0.20 < C ≦ 0.40)”.
Consider `COc1cc2c(Oc3cccc(NC(=O)Nc4cc(C(C)(C)F)no4)c3)ncnc2cc1O` [Ex 257, 1-(3-(2-fluoropropan-2-yl)isoxazol-5-yl)-3-(3-(7-hydroxy-6-methoxyquinazolin-4-yloxy)phenyl)urea], for which the S35 entry is “C (0.20 < C ≦ 0.40)”.
On the same count and under the same terms, the result for `COc1cc2ncnc(Oc3ccc(Cl)c(NC(=O)Nc4cc(C(C)(C)C)nn4-c4ccc(C)cc4)c3)c2cc1OC` [Ex 298, 1-(3-tert-butyl-1-p-tolyl-1H-pyrazol-5-yl)-3-(2-chloro-5-(6,7-dimethoxyquinazolin-4-yloxy)phenyl)urea] reads “D (D > 0.40)”; that for `CCOc1cc2ncnc(Sc3cccc(NC(=O)Nc4cc(C(C)(CF)CF)on4)c3)c2cc1OC` [Example 388, 1-(5-(1,3-difluoro-2-methylpropan-2-yl)isoxazol-3-yl)-3-(3-(7-ethoxy-6-methoxyquinazolin-4-ylthio)phenyl)urea], “C (0.20 < C ≦ 0.40)”.
Consider `COc1cc2ncnc(Oc3ccc(Cl)c(NC(=O)Nc4cc(C(C)(C)C)nn4-c4ccccc4)c3)c2cc1OC` [Ex 301, 1-(3-tert-butyl-1-phenyl-1H-pyrazol-5-yl)-3-(2-chloro-5-(6,7-dimethoxyquinazolin-4-yloxy)phenyl)urea], for which the S35 entry was “D (D > 0.40)”.
`COc1cc2ncnc(Oc3cccc(NC(=O)Nc4cc(C(C)(C)C(F)(F)F)on4)c3)c2cc1O` [Ex 264, 1-(3-(6-hydroxy-7-methoxyquinazolin-4-yloxy)phenyl)-3-(5-(1,1,1-trifluoro-2-methylpropan-2-yl)isoxazol-3-yl)urea]: the S35 entry was “C (0.20 < C ≦ 0.40)”.
The same measure, in the same setting: for `COCCOc1cc2ncnc(Sc3cccc(NC(=O)Nc4cc(C(C)(C)C)nn4-c4ccc(C)cc4C)c3)c2cc1OC` [Ex 283, 1-(3-tert-butyl-1-(2,4-dimethylphenyl)-1H-pyrazol-5-yl)-3-(3-(6-methoxy-7-(2-methoxyethoxy)quinazolin-4-ylthio)phenyl)urea] the value was “C (0.20 < C ≦ 0.40)”; for `COc1cc2ncnc(Oc3cccc(NC(=O)Nc4cc(C(C)(C)C)nn4-c4ccc(C)cc4)c3C)c2cc1OC` [Ex 288, 1-(3-tert-butyl-1-p-tolyl-1H-pyrazol-5-yl)-3-(3-(6,7-dimethoxyquinazolin-4-yloxy)-2-methylphenyl)urea], “C (0.20 < C ≦ 0.40)”; for `COc1cc2ncnc(Oc3cc(NC(=O)Nc4cc(C(C)(CF)CF)on4)ccc3F)c2cc1OC` [Ex 294, 1-(5-(1,3-difluoro-2-methylpropan-2-yl)isoxazol-3-yl)-3-(3-(6,7-dimethoxyquinazolin-4-yloxy)-4-fluorophenyl)urea], “D (D > 0.40)”.
On to `CCc1cc(NC(=O)Nc2cccc(Sc3ncnc4cc(OC)c(OC)cc34)c2)n(-c2ccccc2)n1` [Ex 399, 1-(3-(6,7-dimethoxyquinazolin-4-ylthio)phenyl)-3-(3-ethyl-1-phenyl-1H-pyrazol-5-yl)urea], for which the S35 entry is given as “C (0.20 < C ≦ 0.40)”.
On the same count and under the same terms, the result for `COc1cc2ncnc(Sc3cccc(NC(=O)Nc4cc(C(C)(C)C)nn4-c4ccc(C(C)(C)C)cc4)c3)c2cc1OC` [Ex 370, 1-(3-tert-butyl-1-(4-tert-butylphenyl)-1H-pyrazol-5-yl)-3-(3-(6,7-dimethoxyquinazolin-4-ylthio)phenyl)urea] reads “D (D > 0.40)”.
